Reference: US10844044B2 (Vanderbilt University, priority 2018, dated 2020)
Read-outs that look alike come from different tables or passages of the source.

How the values were obtained:
[1] = test system: MV4:11 human cancer cell lines; assay: Anti-proliferative activity, CellTiter-Glo viability assay, 7 day protocol; format: cell-based; conditions: MV4:11 cells, 7 day incubation, read-out: GI50 on cellular proliferation of MV4:11 human cancer cell lines
Method in brief: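 MV4:11 cells seeded at 3600 cells/ml and exposed to compounds for 7 days, 0.1% DMSO final. Viability measured by CellTiter-Glo luminescence. GI50 from three biological replicates, each in technical triplicate, given as mean ± S.E.M.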

[2] = molecular target: WDR5 (Homo sapiens (Human), UniProt P61964); assay: TR-FRET binding assay (displacement of 10mer-Thr-FAM probe from WDR5)
[3] = read-out: Ki for Inhibition of WDR5 by TR-FRET assay, TR-FRET, 10mer-Thr-FAM probe, WDR5-His tag 2 nM, pH 7.0
[4] = read-out: Ki for Inhibition of WDR5 by TR-FRET assay

For Cc1ccnc(C(NC(=O)c2cc(Cn3ccn(C)c3=N)cc(-c3ccc(F)cc3OC(F)F)c2)C2CC2)c1 (centres unmarked) [Example 71, N-(Cyclopropyl(4-methylpyridin-2-yl)methyl)-2′-(difluoromethoxy)-4′-fluoro-5-((2-imino-3-methyl-2,3-dihydro-1H-imidazol-1-yl)methyl)-[1,1′-biphenyl]-3-carboxamide], the GI50 ([1]; Homo sapiens, MV4-11, 168 h) was 1900 nM and the Ki [2, 3] was 0.33 nM.
In the case of Cc1ccnc(C(NC(=O)c2cc(Cn3ccn(C)c3=N)cc(-c3c(C)ccc4[nH]ncc34)c2)C2CC2)c1 (centres unmarked) [Example 47, N-(cyclopropyl(4-methylpyridin-2-yl)methyl)-3-((2-imino-3-methyl-2,3-dihydro-1H-imidazol-1-yl)methyl)-5-(5-methyl-1H-indazol-4-yl)benzamide], the GI50 ([1]; Homo sapiens, MV4-11, 168 h) is reported as 6700 nM and the Ki [2, 3] is reported as 0.88 nM.
For CCn1cc(-c2cc(Cn3ccn(C)c3=N)cc(C(=O)NCc3ccc(F)c(C)c3)c2)c(C(F)(F)F)n1 [Example 198, 3-(1-Ethyl-3-(trifluoromethyl)-1H-pyrazol-4-yl)-N-(4-fluoro-3-methylbenzyl)-5-((2-imino-3-methyl-2,3-dihydro-1H-imidazol-1-yl)methyl)benzamide], the GI50 ([1]; Homo sapiens, MV4-11, 168 h) was under 100 nM and the Ki [2, 3] was under 0.1 nM.
In the case of COc1cc([C@@H](NC(=O)c2cc(Cn3ccoc3=N)cc(-c3cn(C)nc3C(F)(F)F)c2)C2CC2)ncc1F [Example 306, (S)—N-(Cyclopropyl(5-fluoro-4-methoxypyridin-2-yl)methyl)-3-((2-iminooxazol-3(2H)-yl)methyl)-5-(1-methyl-3-(trifluoromethyl)-1H-pyrazol-4-yl)benzamide], the GI50 ([1]; Homo sapiens, MV4-11, 168 h) is reported as 410 nM and the Ki [2] is reported as under 0.1 nM.
Compound CCn1cc(-c2cc(CN3CCN(C)C3=N)cc(C(=O)N[C@H](c3ccc(F)c(F)c3)C3CC3)c2)c(C(F)(F)F)n1 [Example 213, (S)—N-(Cyclopropyl(3,4-difluorophenyl)methyl)-3-(1-ethyl-3-(trifluoromethyl)-1H-pyrazol-4-yl)-5-((2-imino-3-methylimidazolidin-1-yl)methyl)benzamide] has a GI50 ([1]; Homo sapiens, MV4-11, 168 h) of under 100 nM and a Ki [2] of under 0.1 nM.
Work on Cc1cc([C@@H](NC(=O)c2cc(Cn3ccoc3=N)cc(-c3ccc(F)cc3Cl)c2)C2CC2)ccc1F [Example 248, (S)-2′-Chloro-N-(cyclopropyl(4-fluoro-3-methylphenyl)methyl)-4′-fluoro-5-((2-iminooxazol-3(2H)-yl)methyl)-[1,1′-biphenyl]-3-carboxamide] yielded a GI50 ([1]; Homo sapiens, MV4-11, 168 h) of 120 nM and a Ki [2, 3] of under 0.1 nM.
Cn1cc(-c2cc(Cn3ccn(C)c3=N)cc(C(=O)N[C@H](c3ccc(Cl)c(Cl)c3)C3CC3)c2)c(C(F)(F)F)n1 [Example 157, (S)—N-(Cyclopropyl(3,4-dichlorophenyl)methyl)-3-((2-imino-3-methyl-2,3-dihydro-1H-imidazol-1-yl)methyl)-5-(1-methyl-3-(trifluoromethyl)-1H-pyrazol-4-yl)benzamide] was tested, and the GI50 [1] was 100 nM and the Ki [2, 3] was under 0.1 nM.
Work on Cc1cc([C@@H](NC(=O)c2cc(CN3CCOC3=N)cc(-c3cn(C)nc3C(F)(F)F)c2)C2CC2)ncc1F [Example 300, (S)—N-(Cyclopropyl(5-fluoro-4-methylpyridin-2-yl)methyl)-3-((2-iminooxazolidin-3-yl)methyl)-5-(1-methyl-3-(trifluoromethyl)-1H-pyrazol-4-yl)benzamide] yielded a GI50 ([1]; Homo sapiens, MV4-11, 168 h) of under 100 nM and a Ki [2, 3] of under 0.1 nM.
“3-(1-Ethyl-3-(trifluoromethyl)-1H-pyrazol-4-yl)-5-((2-iminooxazolidin-3-yl)methyl)-N-(1-methyl-6-oxo-1,6-dihydropyridin-3-yl)methyl)benzamide [Example 293]” gave a GI50 [1] of 480 nM and a Ki [2, 4] of 0.54 nM.
Compound CCn1cc(-c2cc(Cn3ccn(C)c3=N)cc(C(=O)NCc3ccc(=O)n(C)c3)c2)c(C(F)(F)F)n1 [Example 200, 3-(1-Ethyl-3-(trifluoromethyl)-1H-pyrazol-4-yl)-5-((2-imino-3-methyl-2,3-dihydro-1H-imidazol-1-yl)methyl)-N-((1-methyl-6-oxo-1,6-dihydropyridin-3-yl)methyl)benzamide] has a GI50 ([1]; Homo sapiens, MV4-11, 168 h) of 710 nM and a Ki [2, 3] of 0.15 nM.
For CC(=O)/N=c1\n(C)ccn1Cc1cc(C(=O)NCc2ccc(Cl)c(Cl)c2)cc(-c2ccc(F)nc2C)c1 [Example 121, (E)-3-((2-(acetylimino)-3-methyl-2,3-dihydro-1H-imidazol-1-yl)methyl)-N-(3,4-dichlorobenzyl)-5-(6-fluoro-2-methylpyridin-3-yl)benzamide], the GI50 ([1]; Homo sapiens, MV4-11, 168 h) was 5900 nM and the Ki [2, 4] was over 33 nM.
N=C1OCCN1Cc1cc(C(=O)N[C@H](c2ccc(Cl)c(Cl)c2)C2CC2)cc(-c2ncc(F)cc2C(F)(F)F)c1 [Example 284, (S)—N-(Cyclopropyl(3,4-dichlorophenyl)methyl)-3-(5-fluoro-3-(trifluoromethyl)pyridin-2-yl)-5-((2-iminooxazolidin-3-yl)methyl)benzamide] showed a GI50 ([1]; Homo sapiens, MV4-11, 168 h) of 270 nM and a Ki [2, 3] of 0.11 nM.
For COc1cc([C@@H](NC(=O)c2cc(Cn3ccn(C)c3=N)cc(-c3cn(C)nc3C(F)(F)F)c2)C2CC2)ccc1F [Example 207], the GI50 ([1]; Homo sapiens, MV4-11, 168 h) was under 100 nM and the Ki [2, 3] was under 0.1 nM.
In the case of Cc1ccnc([C@@H](NC(=O)c2cc(Cn3ccn(C)c3=N)cc(-c3cccnc3C(F)(F)F)c2F)C2CC2)c1 [Example 132, (S)—N-(Cyclopropyl(4-methylpyridin-2-yl)methyl)-2-fluoro-5-((2-imino-3-methyl-2,3-dihydro-1H-imidazol-1-yl)methyl)-3-(2-(trifluoromethyl)pyridin-3-yl)benzamide], the GI50 ([1]; Homo sapiens, MV4-11, 168 h) is reported as 610 nM and the Ki [2, 3] is reported as 0.13 nM.
Compound Cc1cc(CNC(=O)c2cc(Cn3ccn(C)c3=N)cc(-c3ccc(F)cc3C)n2)ccc1Cl [Example 56, N-(4-Chloro-3-methylbenzyl)-6-(4-fluoro-2-methylphenyl)-4-((2-imino-3-methyl-2,3-dihydro-1H-imidazol-1-yl)methyl)picolinamide] has a GI50 ([1]; Homo sapiens, MV4-11, 168 h) of 450 nM and a Ki [2, 3] of 1.2 nM.
N=C1OCCN1Cc1cc(C(=O)N[C@H](c2ccc(Cl)c(F)c2)C2CC2)cc(-c2ccc(F)cc2Cl)c1 [Example 301, (S)-2′-Chloro-N-((4-chloro-3-fluorophenyl)(cyclopropyl)methyl)-4′-fluoro-5-((2-iminooxazolidin-3-yl)methyl)-[1,1′-biphenyl]-3-carboxamide] gave a GI50 ([1]; Homo sapiens, MV4-11, 168 h) of 270 nM and a Ki [2, 3] of under 0.1 nM.
For CC(C)n1cc(-c2cc(CN3CCN(C)C3=N)cc(C(=O)N[C@H](c3ccc(F)c(F)c3)C3CC3)c2)c(C(F)(F)F)n1 [Example 216, (S)—N-(Cyclopropyl(3,4-difluorophenyl)methyl)-3-((2-imino-3-methylimidazolidin-1-yl)methyl)-5-(1-isopropyl-3-(trifluoromethyl)-1H-pyrazol-4-yl)benzamide], the GI50 ([1]; Homo sapiens, MV4-11, 168 h) was under 100 nM and the Ki [2, 3] was under 0.1 nM.
Cc1cc([C@@H](NC(=O)c2cc(Cn3ccn(C4CC4)c3=N)cc(-c3cn(C)nc3C(F)(F)F)c2)C2CC2)ncc1F [Example 204, (S)—N-(Cyclopropyl(5-fluoro-4-methypyridin-2-yl)methyl)-3-((3-cyclopropyl-2-imino-2,3-dihydro-1H-imidazol-1-yl)methyl)-5-(1-methyl-3-(trifluoromethyl)-1H-pyrazol-4-yl)benzamide] was tested, and the GI50 ([1]; Homo sapiens, MV4-11, 168 h) was under 100 nM and the Ki [2, 3] was under 0.1 nM.
For Cc1cc([C@@H](NC(=O)c2cc(CN3CCN(C)C3=N)cc(-c3cccnc3C(F)(F)F)c2)C2CC2)ccc1F [Example 143, (S)—N-(Cyclopropyl(4-fluoro-3-methylphenyl)methyl)-3-((2-imino-3-methylimidazolidin-1-yl)methyl)-5-(2-(trifluoromethyl)pyridin-3-yl)benzamide], the GI50 ([1]; Homo sapiens, MV4-11, 168 h) was 170 nM and the Ki [2, 4] was under 0.1 nM.
Compound CCn1cc(-c2cc(Cn3ccsc3=N)cc(C(=O)N[C@H](c3ccc(Cl)c(F)c3)C3CC3)c2)c(C(F)(F)F)n1 [Example 324, (S)—N-((4-Chloro-3-fluorphenyl)(cyclopropyl)methyl)-3-(1-ethyl-3-(trifluoromethyl)-1H-pyrazol-4-yl)-5-((2-iminothiazol-3(2H)-yl)methyl)benzamide] has a GI50 ([1]; Homo sapiens, MV4-11, 168 h) of under 100 nM and a Ki [2, 4] of under 0.1 nM.
COc1cc(CNC(=O)c2cc(Cn3ccoc3=N)cc(-c3ccc(F)cc3C)c2)cc(OC)c1 [Example 229, N-(3,5-Dimethoxybenzyl)-4′-fluoro-5-((2-iminooxazol-3(2H)-yl)methyl)-2′-methyl-[1,1′-biphenyl]-3-carboxamide] was tested, and the GI50 ([1]; Homo sapiens, MV4-11, 168 h) was 550 nM and the Ki [2] was 0.21 nM.
Work on COc1cc(OC)cc(C(NC(=O)c2cc(Cn3ccn(C)c3=N)cc(-c3ncc(F)cc3C)c2)C2CC2)c1 (centres unmarked) [Example 68, N-(Cyclopropyl(3,5-dimethoxyphenyl)methyl)-3-(5-fluoro-3-methylpyridin-2-yl)-5-((2-imino-3-methyl-2,3-dihydro-1H-imidazol-1-yl)methyl)benzamide] yielded a GI50 ([1]; Homo sapiens, MV4-11, 168 h) of 2700 nM and a Ki [2, 4] of 0.35 nM.
CN1CCN(Cc2cc(C(=O)N[C@H](c3ccc(F)c(Cl)c3)C3CC3)cc(-c3cccnc3C(F)(F)F)c2)C1=N [Example 219, (S)—N-((3-chloro-4-fluorophenyl)(cyclopropyl)methyl)-3-((2-imino-3-methylimidazolidin 1-yl)methyl)-5-(2-(trifluoromethyl)pyridin-3-yl)benzamide] gave a GI50 ([1]; Homo sapiens, MV4-11, 168 h) of under 100 nM and a Ki [2, 3] of under 0.1 nM.
COc1ccnc(CNC(=O)c2cc(Cn3ccn(C)c3=N)cc(-c3ccncc3C)c2)c1 [Example 8, 3-((2-Imino-3-methyl-2,3-dihydro-1H-imidazol-1-yl)methyl)-N-((4-methoxypyridin-2-yl)methyl)-5-(3-methylpyridin-4-yl)benzamide] gave a GI50 ([1]; Homo sapiens, MV4-11, 168 h) of 170 nM and a Ki [2, 3] of 0.27 nM.
Compound Cn1cc(-c2cc(CN3CCCC3=N)cc(C(=O)N[C@H](c3ccc(F)c(F)c3)C3CC3)c2)c(C(F)(F)F)n1 [Example 341, (S)—N-(Cyclopropyl(3,4-difluorophenyl)methyl)-3-((2-iminopyrrolidin-1-yl)methyl)-5-(1-methyl-3-(trifluoromethyl)-1H-pyrazol-4-yl)benzamide] has a GI50 ([1]; Homo sapiens, MV4-11, 168 h) of 100 nM and a Ki [2, 3] of 0.35 nM.
